Experiment [1] concerns HBV in primary human hepatocytes (PHH). The experiment can be described thus: Cryopreserved primary human hepatocytes (PHH) HBV infection assay. In kind it is cell-based. As to conditions: HBV-infected cryopreserved PHH, 9 days post-compound treatment. Here is the method: This assay is used to confirm the anti-HBV effect of the compounds in HBV PHH infection assay. Cryopreserved PHH (BioreclamationIVT, Lot YJM) was thawed at 37° C. and gently transferred into pre-warmed InVitroGRO HT medium (BioreclamationIVT, Cat. S03317). The mixture was centrifuged at 70 relative centrifugal force (RCF) for 3 minutes at RT, and the supernatant was discarded. Pre-warmed InVitroGRO CP medium (BioreclamationIVT, Cat #S03316) was added to the cell pellet to gently re-suspend cells. The cells were seeded at the density of 5.8×10^4 cells per well to collagen I coated 96-well plate (Gibco, Cat. A1142803) with the InVitroGRO CP medium. All plates were incubated at 37° C. with 5% CO2 and 85% humidity.
At 20 hours after plating, the medium was changed to PHH culture medium (Dulbecco's Modified Eagle Medium (DMEM)/F12 (1:1) (Gibco, Cat. 11320-033), 10% fetal bovine serum (Gibco Cat. 10099141), 100 U/mL penicillin, 100 μg/mL streptomycin (Gibco, Cat. 151401-122), 5 ng/mL human epidermal growth factor (Invitrogen Cat. PHG0311L), 20 ng/mL dexamethasone (Sigma, Cat. D4902) and 250 ng/mL human recombinant insulin (Gibco, Cat. 12585-014)). And the cells were incubated at 37° C. with 5% CO2 and 85% humidity for 4 hours. The medium was then changed to pre-warmed PHH culture medium containing 4% polyethylene glycol (PEG) MW8000 (Sigma, Cat. P1458-50ML) and 1% DMSO (Sigma, Cat. D2650). 5.8×10^6 genomic equivalents of HBV were added into the medium.
At 24 hours post-infection, the cells were gently washed with PBS and refreshed with PHH culture medium supplemented with 1% DMSO, and 0.25 mg/mL Matrix gel (Corning, Cat. 356237) at 200 μL per well. All plates were immediately placed in at 37° C. CO2 incubator.
24 hours later, serial dilutions of compounds made with DMSO were further diluted with the same culture medium (PHH culture medium supplemented with 1% DMSO and 0.25 mg/mL Matrix gel as described above) before they were added to the cells to reach desired final compound concentrations and 1% DMSO concentration. The medium containing the compounds were refreshed every three days.
At 9 days post-compound treatment, extracellular HBsAg level were measured with Chemiluminescence Immuno Assay (CLIA) kit (Autobio, HBsAg Quantitative CLIA). Extracellular HBV DNA was extracted by MagNA Pure 96 system (Roche) and then determined by quantitative PCR with the following primers and probe: […]
HBsAg IC50 and HBV DNA IC50 values were derived from the dose-response curve using 4 parameter logistic curve fit method. The compounds of formula (I) have HBsAg IC50<20 μM, particularly <1 μM; and HBV DNA IC50<50 μM. Test results of the compounds of this invention as well as the reference compounds in Cryopreserved PHH assay are given in Table 2 and Table 3.

In experiment [2] the test system is HBeAg level (surrogate marker for cccDNA) in HepDES19 cells. The experiment can be described thus: Engineered HepDES19 primary screen assay (HBeAg as surrogate marker for cccDNA). In kind it is cell-based, HBV. In short, it runs like this: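 HepDES19 cells were induced by Tet withdrawal for 8 days, then exposed to half-log compound dilutions (1% DMSO) for 5 days at 37° C. HBeAg, a cccDNA surrogate, was measured by ELISA; viability by CCK-8. IC50 from 4-parameter logistic fit.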

Where [3] appears, read: Hepatitis B virus, Hepatocyte, 216 h, extracellular HBsAg by CLIA, read-out: HBsAg IC50.
Setting [4] is: Hepatitis B virus, HepDES19, 120 h, read-out: IC50 (HBeAg) in HepDES19 primary screen assay, HepDES19 cells, 5 days incubation with compound, HBeAg by ELISA.
Setting [5] is: extracellular HBsAg by CLIA, read-out: HBsAg IC50.
The mark [6] stands for this setting: read-out: IC50 (HBeAg) in HepDES19 primary screen assay, HepDES19 cells, 5 days incubation with compound, HBeAg by ELISA.

Like-named read-outs stand apart in the source and are kept apart here.

On to `O=C(O)c1cccc(OCC(O)COc2ccc(-c3cc(=O)c4cccc(Cl)c4o3)cc2)c1` (centres unmarked) [Example 14, 3-[3-[4-(8-chloro-4-oxo-chromen-2-yl)phenoxy]-2-hydroxy-propoxy]benzoic acid], for which the IC50 (as a rule, the concentration that inhibits the measured activity by half) came to 19.2 µM in experiment [1] (setting [3]) and 20.4 µM in experiment [2] (setting [4]).

As for `O=c1cc(-c2ccc(OCCO[C@H]3C[C@@H](C(=O)O)C3)cc2)oc2c(Cl)cccc12` [Example 1-A, cis-3-[2-[4-(8-chloro-4-oxo-chromen-2-yl)phenoxy]ethoxy]cyclobutanecarboxylic acid], the figures for the 50% inhibitory concentration (IC50) in experiment [1] (setting [3]) and in experiment [2] (setting [4]) were 0.72 µM and 0.14 µM, respectively.

Regarding `CCOc1cc(OCCOC2CC(C(=O)O)C2)ccc1-c1cc(=O)c2cccc(Cl)c2o1` (centres unmarked) [Example 51, 3-[2-[4-(8-chloro-4-oxo-chromen-2-yl)-3-ethoxy-phenoxy]ethoxy]cyclobutanecarboxylic acid], the half-maximal inhibitory concentration (IC50) in experiment [1] (setting [3]) was found to be 0.94 µM; in experiment [2] (setting [4]), 0.86 µM.

Take `O=C(O)C1CCC(OCCOc2ccc(-c3cc(=O)c4cccc(Cl)c4o3)cc2)C1` (centres unmarked) [Example 6, 3-[2-[4-(8-chloro-4-oxo-chromen-2-yl)phenoxy]ethoxy]cyclopentanecarboxylic acid]: the IC50 was 0.86 µM in experiment [1] (setting [3]) and 1.95 µM in experiment [2] (setting [4]).

For `COc1ccc2c(=O)cc(-c3ccc(OCCOC4CC(C(=O)O)C4)cc3)oc2c1Cl` (centres unmarked) [Example 19, 3-[2-[4-(8-chloro-7-methoxy-4-oxo-chromen-2-yl)phenoxy]ethoxy]cyclobutanecarboxylic acid], the IC50 worked out at 1.51 µM in experiment [1] (setting [3]) and 22.2 µM in experiment [2] (setting [4]).

As to `O=C(O)c1cccc(OCCOc2ccc(-c3cc(=O)c4cccc(Cl)c4o3)cc2)c1` [Example 3, 3-[2-[4-(8-chloro-4-oxo-chromen-2-yl)phenoxy]ethoxy]benzoic acid], the 50% inhibitory concentration (IC50) came out at 35.7 µM in experiment [1] (Hepatitis B virus, Hepatocyte, 216 h, extracellular HBV DNA by quantitative PCR, read-out: HBV DNA IC50); 12.5 µM in experiment [1] (setting [3]); 0.15 µM in experiment [2] (setting [4]).

With `CC(COc1ccc(-c2cc(=O)c3cccc(Cl)c3o2)cc1)OC1CC(C(=O)O)C1` (centres unmarked) [Example 12, 3-[2-[4-(8-chloro-4-oxo-chromen-2-yl)phenoxy]-1-methyl-ethoxy]cyclobutanecarboxylic acid], the IC50 is 0.21 µM in experiment [1] (setting [3]) and 1.07 µM in experiment [2] (setting [4]).

In the case of `COC(=O)C1CC(OCCOc2ccc(-c3oc4c(Cl)cc(F)cc4c(=O)c3OC(F)(F)F)cc2)C1` (single isomer, unassigned) [Example 62-A, methyl 3-[2-[4-[8-chloro-6-fluoro-4-oxo-3-(trifluoromethoxy)chromen-2-yl]phenoxy]ethoxy]cyclobutanecarboxylate], the IC50 turned out to be 4.22 µM in experiment [1] (setting [3]) and 1.01 µM in experiment [2] (setting [4]).

As to `O=C(O)C1CC(OCCOc2ccc(-c3cc(=O)c4ccc(C(F)(F)F)c(Cl)c4o3)cc2)C1` (centres unmarked) [Example 69, 3-[2-[4-[8-chloro-4-oxo-7-(trifluoromethyl)chromen-2-yl]phenoxy]ethoxy]cyclobutanecarboxylic acid], the IC50 in experiment [1] (setting [3]) stood at 2.01 µM; in experiment [2] (setting [4]), 10.7 µM.

As to `CCOC(=O)C1CC1OCCOc1ccc(-c2cc(=O)c3cccc(Cl)c3o2)cc1` (single isomer, unassigned) [Example 4-B, ethyl 2-[2-[4-(8-chloro-4-oxo-chromen-2-yl)phenoxy]ethoxy]cyclopropanecarboxylate], the 50% inhibitory concentration (IC50) in experiment [1] (setting [5]) came to 0.51 µM; in experiment [2] (setting [6]) it was 5.23 µM.

Regarding `O=C(O)CCOCCOc1ccc(-c2cc(=O)c3cccc(Cl)c3o2)cc1` [Example 10, 3-[2-[4-(8-chloro-4-oxo-chromen-2-yl)phenoxy]ethoxy]propanoic acid], the concentration for half-maximal inhibition (IC50) in experiment [1] (setting [3]) came to 2.72 µM; in experiment [2] (setting [4]), 0.79 µM.

For the compound `O=C(O)C1CC(OCCOc2ccc(-c3oc4c(Cl)cccc4c(=O)c3Cl)cc2)C1` (centres unmarked) [Example 53, 3-[2-[4-(3,8-dichloro-4-oxo-chromen-2-yl)phenoxy]ethoxy]cyclobutanecarboxylic acid], the half-maximal inhibitory concentration (IC50) worked out at 4.01 µM in experiment [1] (setting [3]) and 22 µM in experiment [2] (setting [4]).

With `COc1ccc2c(=O)c(-c3ccc(C(=O)O)cc3)coc2c1` [Example F-3, 4-(7-methoxy-4-oxo-chromen-3-yl)benzoic acid, reference compound], the half-maximal inhibitory concentration (IC50) was > 100 µM in experiment [1] (setting [3]) and > 50 µM in experiment [2] (setting [4]).

On to `COc1ccc(-c2cc(=O)c3ccccc3o2)cc1` [Example F-2, 4′-methoxyflavone, reference compound], for which the IC50 in experiment [1] (setting [3]) was 46.5 µM; in experiment [2] (setting [4]), 16.3 µM.

As to `O=c1cc(-c2ccc(OCCO[C@H]3C[C@@H](C(=O)O)C3)nc2)oc2c(Cl)cccc12` (single isomer, unassigned) [Example 38-B, 3-[2-[[5-(8-chloro-4-oxo-chromen-2-yl)-2-pyridyl]oxy]ethoxy]cyclobutanecarboxylic acid], the IC50 stood at 0.88 µM in experiment [1] (setting [5]) and 0.76 µM in experiment [2] (setting [6]).

As for `O=C(O)C1CC(OCCOc2ccc(-c3cc(=O)c4cc(C(F)(F)F)cc(Cl)c4o3)cc2)C1` (single isomer, unassigned) [Example 66-B, 3-[2-[4-[8-chloro-4-oxo-6-(trifluoromethyl)chromen-2-yl]phenoxy]ethoxy]cyclobutanecarboxylic acid], the results for the IC50 in experiment [1] (setting [3]) and in experiment [2] (setting [4]) were 4.78 µM and 13.2 µM, respectively.

Regarding `O=c1cc(-c2ccc(OCCO[C@H]3C[C@@H](C(=O)O)C3)cc2)oc2c(Br)cccc12` [Example 33, Cis-3-[2-[4-(8-bromo-4-oxo-chromen-2-yl)phenoxy]ethoxy]cyclobutanecarboxylic acid], the IC50 in experiment [1] (setting [3]) was 0.68 µM; in experiment [2] (setting [4]), 0.31 µM.

These data come from patent US12012390B2, “Flavone compounds for the treatment and prophylaxis of hepatitis B virus disease” (priority 2018, dated 2024).
